Experimental data published in PubChem BioAssay (NCI).
Where “and” joins values, the source holds several entries; their conditions need not be identical. Identical values can stand only once.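 Exposure lasted 48 hours, with cells grown in 96-well plates and compounds tested at five concentrations. The concentration for full growth arrest is given as TGI.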

Key:
Assay in all cases: growth of human tumour cells (NCI), 48 h
OVCAR-5 ovarian = tested on: OVCAR-5 ovarian
MDA-MB-435 = tested on: MDA-MB-435
NCI-H226 lung = tested on: NCI-H226 lung
UACC-62 melanoma = tested on: UACC-62 melanoma
SK-OV-3 ovarian = tested on: SK-OV-3 ovarian
UACC-257 melanoma = tested on: UACC-257 melanoma
SNB-75 CNS = tested on: SNB-75 CNS
NCI-H23 lung = tested on: NCI-H23 lung
MALME-3M melanoma = tested on: MALME-3M melanoma
CCRF-CEM leukemia = tested on: CCRF-CEM leukemia

## CCCCCC(/C=C/[C@@H]1[C@@H](C(O)CCCCCC(=O)OC)C(=O)C[C@H]1O[Si](C)(C)C(C)(C)C)OCOCCOC (stereo not given in full)
OVCAR-5 ovarian
  TGI: 48 µM
MDA-MB-435
  TGI: 27.9 µM
NCI-H226 lung
  TGI: 34.9 µM
UACC-62 melanoma
  TGI: 27.5 µM
SK-OV-3 ovarian
  TGI: 34 µM
UACC-257 melanoma
  TGI: 21.9 µM
SNB-75 CNS
  TGI: 22.2 µM
NCI-H23 lung
  TGI: 32.3 µM
MALME-3M melanoma
  TGI: 30.6 µM
CCRF-CEM leukemia
  TGI: > 24.5 µM

## COc1cccc(/C=C2/S/C(=N/Nc3nc(C)c(C(C)=O)s3)NC2=O)c1O
OVCAR-5 ovarian
  TGI: 94.2 µM
MDA-MB-435
  TGI: > 100 µM
NCI-H226 lung
  TGI: > 100 µM
UACC-62 melanoma
  TGI: 43.9 µM
SK-OV-3 ovarian
  TGI: > 100 µM
UACC-257 melanoma
  TGI: 86.2 µM
SNB-75 CNS
  TGI: > 100 µM
NCI-H23 lung
  TGI: > 100 µM
MALME-3M melanoma
  TGI: 88.2 µM
CCRF-CEM leukemia
  TGI: 50.7 µM

## CSC1(Cc2ccccn2)C(=O)Nc2cccc([N+](=O)[O-])c21 (stereo not given)
OVCAR-5 ovarian
  TGI: > 100 µM
MDA-MB-435
  TGI: > 100 µM
NCI-H226 lung
  TGI: > 100 µM
UACC-62 melanoma
  TGI: > 100 µM
SK-OV-3 ovarian
  TGI: > 100 µM
UACC-257 melanoma
  TGI: > 100 µM
SNB-75 CNS
  TGI: > 100 µM
NCI-H23 lung
  TGI: > 100 µM
MALME-3M melanoma
  TGI: > 100 µM
CCRF-CEM leukemia
  TGI: > 100 µM

## CCOC(=O)C(C)(Cc1ccc(O)cn1)NC(=O)c1ccccc1 (stereo not given)
OVCAR-5 ovarian
  TGI: > 100 µM
MDA-MB-435
  TGI: > 100 µM
NCI-H226 lung
  TGI: > 100 µM
UACC-62 melanoma
  TGI: > 100 µM
SK-OV-3 ovarian
  TGI: > 100 µM
UACC-257 melanoma
  TGI: > 100 µM
SNB-75 CNS
  TGI: > 100 µM
NCI-H23 lung
  TGI: > 100 µM
MALME-3M melanoma
  TGI: > 100 µM
CCRF-CEM leukemia
  TGI: > 100 µM

## Cn1cnnc1SC(F)(F)c1nc2ccccc2o1
OVCAR-5 ovarian
  TGI: > 100 µM
MDA-MB-435
  TGI: > 100 µM
NCI-H226 lung
  TGI: > 100 µM
UACC-62 melanoma
  TGI: > 100 µM
SK-OV-3 ovarian
  TGI: > 100 µM
UACC-257 melanoma
  TGI: > 100 µM
SNB-75 CNS
  TGI: > 100 µM
NCI-H23 lung
  TGI: > 100 µM
MALME-3M melanoma
  TGI: > 100 µM
CCRF-CEM leukemia
  TGI: > 100 µM

## Cc1ccc(C=C(C(=O)O)C(=O)O)o1
OVCAR-5 ovarian
  TGI: > 100 µM
MDA-MB-435
  TGI: > 100 µM
NCI-H226 lung
  TGI: > 100 µM
UACC-62 melanoma
  TGI: > 100 µM
SK-OV-3 ovarian
  TGI: > 100 µM
UACC-257 melanoma
  TGI: > 100 µM
SNB-75 CNS
  TGI: > 100 µM
NCI-H23 lung
  TGI: > 100 µM
MALME-3M melanoma
  TGI: > 100 µM
CCRF-CEM leukemia
  TGI: > 100 µM

## C=C(Cl)C(Cl)(CBr)CCC(Br)C(C)(C)Cl (stereo not given)
OVCAR-5 ovarian
  TGI: 8.38 µM and 4.14 µM and 29.8 µM
MDA-MB-435
  TGI: 6.56 µM and 4.63 µM and 23.4 µM
NCI-H226 lung
  TGI: 38.4 µM and 32.5 µM and 37.9 µM
UACC-62 melanoma
  TGI: 12 µM and 15.2 µM and 2.68 µM
SK-OV-3 ovarian
  TGI: 62.7 µM
UACC-257 melanoma
  TGI: 6.07 µM and 3.81 µM and 14.1 µM
SNB-75 CNS
  TGI: 7.12 µM and 1.69 µM and 6.97 µM
NCI-H23 lung
  TGI: 40.7 µM and 33.8 µM and > 70.2 µM
MALME-3M melanoma
  TGI: 31.9 µM and 21 µM and 30.8 µM
CCRF-CEM leukemia
  TGI: 45.6 µM and 35 µM and > 100 µM

## CC(=O)Nc1sccc1S(=O)(=O)c1ccc(Cl)cc1
OVCAR-5 ovarian
  TGI: > 100 µM
MDA-MB-435
  TGI: > 100 µM
NCI-H226 lung
  TGI: > 100 µM
UACC-62 melanoma
  TGI: > 100 µM
SK-OV-3 ovarian
  TGI: > 100 µM
UACC-257 melanoma
  TGI: > 100 µM
SNB-75 CNS
  TGI: > 100 µM
NCI-H23 lung
  TGI: > 100 µM
MALME-3M melanoma
  TGI: > 100 µM
CCRF-CEM leukemia
  TGI: > 100 µM

## O=S(=O)(O)c1ccc2c(N=Nc3c(O)ccc4ccccc34)cccc2c1
OVCAR-5 ovarian
  TGI: > 100 µM
MDA-MB-435
  TGI: > 100 µM
NCI-H226 lung
  TGI: > 100 µM
UACC-62 melanoma
  TGI: > 100 µM
SK-OV-3 ovarian
  TGI: > 100 µM
UACC-257 melanoma
  TGI: > 100 µM
SNB-75 CNS
  TGI: > 100 µM
NCI-H23 lung
  TGI: > 100 µM
MALME-3M melanoma
  TGI: > 100 µM
CCRF-CEM leukemia
  TGI: > 100 µM

## CC1=NNC(=O)[C@H]2[C@H]1CCC1[C@@H]2CC[C@]2(C)[C@@H](O)CC[C@@H]12 (stereo not given in full)
OVCAR-5 ovarian
  TGI: > 100 µM
MDA-MB-435
  TGI: > 100 µM
NCI-H226 lung
  TGI: > 100 µM
UACC-62 melanoma
  TGI: > 100 µM
SK-OV-3 ovarian
  TGI: > 100 µM
UACC-257 melanoma
  TGI: > 100 µM
SNB-75 CNS
  TGI: > 100 µM
NCI-H23 lung
  TGI: > 100 µM
MALME-3M melanoma
  TGI: > 100 µM
CCRF-CEM leukemia
  TGI: > 100 µM

## CON(C)C(=O)C(C)NC(=O)OC(C)(C)C (stereo not given)
OVCAR-5 ovarian
  TGI: > 100 µM
MDA-MB-435
  TGI: > 100 µM
NCI-H226 lung
  TGI: > 100 µM
UACC-62 melanoma
  TGI: > 100 µM
SK-OV-3 ovarian
  TGI: > 100 µM
UACC-257 melanoma
  TGI: > 100 µM
SNB-75 CNS
  TGI: > 100 µM
NCI-H23 lung
  TGI: > 100 µM
MALME-3M melanoma
  TGI: > 100 µM
CCRF-CEM leukemia
  TGI: > 100 µM

## COCCOCCOCCC(=O)NC1CC2CCC1(C)C2(C)C (stereo not given)
OVCAR-5 ovarian
  TGI: > 100 µM
MDA-MB-435
  TGI: > 100 µM
NCI-H226 lung
  TGI: > 100 µM
UACC-62 melanoma
  TGI: > 100 µM
SK-OV-3 ovarian
  TGI: > 100 µM
UACC-257 melanoma
  TGI: > 100 µM
SNB-75 CNS
  TGI: > 100 µM
NCI-H23 lung
  TGI: > 100 µM
MALME-3M melanoma
  TGI: > 100 µM
CCRF-CEM leukemia
  TGI: > 100 µM

## COc1cccc(N2C(=O)C3CC(CC(C)(C)C)c4c([nH]c5ccccc45)C3C2=O)c1 (stereo not given)
OVCAR-5 ovarian
  TGI: > 10 µM
MDA-MB-435
  TGI: > 10 µM
NCI-H226 lung
  TGI: > 10 µM
UACC-62 melanoma
  TGI: > 10 µM
SK-OV-3 ovarian
  TGI: > 10 µM
UACC-257 melanoma
  TGI: > 10 µM
SNB-75 CNS
  TGI: 7.04 µM
NCI-H23 lung
  TGI: > 10 µM
MALME-3M melanoma
  TGI: > 10 µM
CCRF-CEM leukemia
  TGI: > 10 µM

## O=C(O)Cc1ccc(Oc2nc3ccccc3nc2-c2ccccc2)cc1
OVCAR-5 ovarian
  TGI: > 100 µM
MDA-MB-435
  TGI: > 100 µM
NCI-H226 lung
  TGI: > 100 µM
UACC-62 melanoma
  TGI: 75.7 µM
SK-OV-3 ovarian
  TGI: > 100 µM
UACC-257 melanoma
  TGI: > 100 µM
SNB-75 CNS
  TGI: > 100 µM
NCI-H23 lung
  TGI: > 100 µM
MALME-3M melanoma
  TGI: > 100 µM
CCRF-CEM leukemia
  TGI: > 100 µM

## C=CCCCCCCCCC(=O)ON(Cc1ccc(O)c(OC)c1)C(=O)C(F)(F)F
OVCAR-5 ovarian
  TGI: > 100 µM
MDA-MB-435
  TGI: > 100 µM
NCI-H226 lung
  TGI: > 100 µM
UACC-62 melanoma
  TGI: > 100 µM
SK-OV-3 ovarian
  TGI: > 100 µM
UACC-257 melanoma
  TGI: > 100 µM
SNB-75 CNS
  TGI: > 100 µM
NCI-H23 lung
  TGI: > 100 µM
MALME-3M melanoma
  TGI: > 100 µM
CCRF-CEM leukemia
  TGI: > 100 µM

## CC(C)=NNc1ncnc2nc[nH]c12
OVCAR-5 ovarian
  TGI: > 48.4 µM
MDA-MB-435
  TGI: > 100 µM
NCI-H226 lung
  TGI: 97 µM
UACC-62 melanoma
  TGI: 20 µM
SK-OV-3 ovarian
  TGI: > 58 µM
UACC-257 melanoma
  TGI: > 100 µM
SNB-75 CNS
  TGI: > 79.6 µM
NCI-H23 lung
  TGI: > 100 µM
MALME-3M melanoma
  TGI: > 100 µM
CCRF-CEM leukemia
  TGI: > 100 µM

## NC(N)=N/N=C\c1c(-c2ccccc2)nc2sccn12
OVCAR-5 ovarian
  TGI: 30.6 µM
MDA-MB-435
  TGI: 29.2 µM
NCI-H226 lung
  TGI: 33.1 µM
UACC-62 melanoma
  TGI: 29.4 µM
SK-OV-3 ovarian
  TGI: 33.2 µM
UACC-257 melanoma
  TGI: 26.3 µM
SNB-75 CNS
  TGI: 24.8 µM
NCI-H23 lung
  TGI: 25.4 µM
MALME-3M melanoma
  TGI: 30 µM
CCRF-CEM leukemia
  TGI: 73.3 µM
